Values of other authors as cited in US8476252B2, “Pharmaceutical emulsion compositions comprising progestogen” (Besins Healthcare Luxembourg SARL, priority 2010, dated 2013).

Tested on: TBI patients
Details: Xiao et al 2008, Wright et al 2007

Structure (SMILES): CC(=O)[C@H]1CC[C@H]2[C@@H]3CCC4=CC(=O)CC[C@]4(C)[C@H]3CC[C@]12C [progesterone, pregn-4-ene-3,20-dione]
- Safety and tolerability (TBI patients): safe and well tolerated
- Mortality (administration of progesterone to TBI patients): decreased mortality
